For one series, the system named is WT and eNOSKO mice. The series is described as follows: Oral GTT in wild-type and eNOS-knockout mice. It is filed as in vivo, mouse. As to conditions: Glucose tolerance test, 30 mg/kg, individual animals.
Another series deals with STZ-treated C57BL/6 mice. The series is described as follows: Insulin tolerance test (ITT) in STZ-treated C57BL/6 mice. The class given is in vivo, mouse. The settings on record: for Blood glucose: ITT. As to the method:
Arrowheads indicate the characteristic ruffled structure of the polymerized actin and actin-associated surface GLUT4. d GLUT4 translocation activity of 30 μM DS20060511 or 100 nM insulin in the presence of the actin polymerization inhibitor, Latrunculin B, at the indicated concentrations. Values shown are means ± SEM, n = 3. **P < 0.01 vs. 0 nM Latrunculin B by one-way ANOVA followed by Dunnett’s test. e Concentration-dependent insulin-stimulated GLUT4 translocation in L6-GLUT4myc myotubes with or without 30 μM DS20060511 (n = 3). f Concentration-dependent DS20060511-stimulated 2-DG uptake with 100 nM insulin in isolated muscles from C57BL/6 mice (n = 3). Values shown are means ± SEM. ***P < 0.001 by one-way ANOVA followed by Tukey’s test. g Blood glucose levels during ITT in STZ-treated C57BL/6 mice (n = 6–7). Vehicle or indicated dose of DS20060511 was given orally at the same time as 0.1 U kg^−1 insulin injection intraperitoneally. Values shown are means ± SEM. *P < 0.05 vs. vehicle by one-way ANOVA followed by Dunnett’s test. c Scale bar in all panels, 5 μm. Uncropped blots for a and b can be found in Supplementary Fig. 6.
C57BL/6 mice deprived of access to food overnight received an intraperitoneal injection of STZ (125 mg kg^−1) and a repeat injection a week later. Thereafter, their blood glucose levels were monitored and insufficient mice (blood glucose levels of under 400 mg dL^−1 or blood glucose levels after overnight food deprivation of under 200 mg dL^−1) were excluded from the experiment. Blood glucose levels were measured using Glutest Every (Sanwa Kagaku Kenkyusho, Nagoya, Japan) in blood samples collected from the tail vein.
Mice received the indicated oral dose of DS20060511 or vehicle at the same time as the intraperitoneal injection of insulin (Humulin) at the indicated dose. Blood glucose levels were measured using Glutest Every in blood samples collected from the tail vein at the indicated timepoints.

In series [1] the test system is mouse liver microsomal fraction. Kind of series: Metabolic stability in mouse liver microsomes. It is filed as in vitro ADME. The settings on record: after 1 h incubation, 1 μM. As to the method:
C57BL/6 mice that had been denied access to food overnight received the indicated oral dose of DS20060511, and blood samples were collected from the tail vein at the indicated timepoints. Plasma samples for quantitation of DS20060511 were prepared by centrifugation. Another group of mice received oral administration DS20060511 (30 mg kg^−1) and euthanized 75 min later. The soleus and gastrocnemius muscles, heart, and inguinal WAT were removed and homogenized in water (5 vol.) for quantitation of the drug concentrations. Plasma samples and tissue homogenates were analyzed by LC-MS/MS (Nexera MP System, SHIMADZU, Kyoto, Japan; API4000 System, SCIEX, Framingham, MA). The tissue concentrations of the compound were calculated by assuming the volume of 1 g of tissue is 1 mL. Evaluation of the metabolic stability of the compound to mouse and human cytochrome P450 (CYP) was conducted as follows. […] The results were expressed as the amount of compound remaining (expressed as a percentage), based on the ratio of the relative area to that in the control (without reaction).

The subject of another series is AMPKα. The series is described as follows: AMPKα phosphorylation in triceps surae muscle in vivo. Further details: species or system mouse. As to conditions: no-exercise condition, 10 mg kg−1, Fig. 6c. On the procedure: The tissue sample was homogenized with a Polytron homogenizer and lysed in a lysis buffer (25 mM Tris-HCl, pH 7.4, 100 mM NaF, 50 mM Na4P2O7, 10 mM EGTA, 10 mM EDTA, 10 mM Na3VO4, 1 mM PMSF, and 1% NP-40) on ice, and the lysate was centrifuged at 17,860 × g for 10 min at 4 °C. The supernatant was collected and the protein concentrations were determined by BCA assay (Thermo Fisher Scientific). Immunoprecipitation of IRβ and IRS1 was performed as described previously, using specific antibodies against IRβ (sc-711, Santa Cruz Biotechnology, Dallas, TX), IRS1 (06-248, Merck Millipore, Burlington, MA), and for detection of phosphotyrosine (05-321, Merck Millipore). Five milligrams of the extracts were incubated with specific antibodies against IRS1 for 1 h at 4 °C. Then, protein G-Sepharose was added, followed by incubation for 2 h at 4 °C. After washing three times, the immunocomplexes were subjected to immunoblotting.
Phosphorylated or total protein of IRβ and IRS1 was resolved on 7% SDS-PAGE and analyzed using specific antibodies against IRβ, IRS1, and phosphotyrosine. […] Bound antibodies were detected with HRP-conjugated secondary antibodies using ECL detection reagents (GE Healthcare, Chicago, IL).

The text below walks through data of paper PMC8379256, “A xanthene derivative, DS20060511, attenuates glucose intolerance by inducing skeletal muscle-specific GLUT4 translocation in mice” (Communications Biology, 2021).

The structures appear in SMILES notation. Where “and” joins values, the source holds several entries; their conditions need not be identical. Equal values may be shown once.

Regarding `COc1ccc2c(C)c(C(=O)O)ccc2c1C1C2=C(CC(C)(C)CC2=O)OC2=C1C(=O)CC(C)(C)C2` [DS20060511], the Blood glucose was 77 mg/dL in the series with WT and eNOSKO mice (0 min); 65 mg/dL in the series on WT and eNOSKO mice (-15 min); 516 mg/dL and 430 mg/dL and 520 mg/dL and 493 mg/dL and 480 mg/dL and 526 mg/dL in the series with STZ-treated C57BL/6 mice (10 mg/kg po with 0.1 U kg−1 insulin ip, 0 min, 10 mg/kg); 427 mg/dL and 401 mg/dL and 313 mg/dL and 397 mg/dL and 311 mg/dL and 432 mg/dL in the series on STZ-treated C57BL/6 mice (10 mg/kg with insulin, 20 min, 10 mg/kg); 433 mg/dL and 472 mg/dL and 458 mg/dL and 427 mg/dL and 461 mg/dL and 483 mg/dL and 532 mg/dL in the series on STZ-treated C57BL/6 mice (30 mg/kg po with 0.1 U kg−1 insulin ip, 0 min, 30 mg/kg). Besides, in the series on STZ-treated C57BL/6 mice (STZ-treated mice, Fig. 4g), the “blood glucose levels, combined with insulin vs insulin alone (in words)” value was “reduced to a greater degree”. The same molecule had a compound remaining in series [1] of 89%. Besides, the “AMPK phosphorylation level in the skeletal muscle” value in the series with AMPKα is given as “remained unchanged”.
